Data: paper PMC7995636 (Bioorganic & medicinal chemistry, 2021)
One block for each compound: values may come before it.

Columns and labels:
[1] = test system: breast cancer resistance protein (BCRP1); conditions: cited from earlier work
[2] = higher in brain; cited from earlier work
[3] = test system: P-glycoprotein (Pgp); conditions: cited from earlier work
[4] = molecular target: Bovine brain tubulin (Bos taurus, UniProt Q6B856); assay: Inhibition of tubulin assembly; format: biochemical
[5] = molecular target: PDGFR-β (Homo sapiens, UniProt P09619); assay: Phosphotyrosine ELISA, PDGFR-β kinase inhibition; format: cell-based; conditions: compared to 1
[6] = test system: HeLa cells; assay: SRB assay, HeLa; format: cell-based; conditions: Homo sapiens, read-out: IC50 ± SD in HeLa
[7] = test system: HeLa WT-βIII cells; assay: SRB assay, HeLa WT-βIII; format: cell-based; conditions: Homo sapiens, read-out: IC50 ± SD in WT βIII

Chain of Bovine brain tubulin (Q6B856 whole entry): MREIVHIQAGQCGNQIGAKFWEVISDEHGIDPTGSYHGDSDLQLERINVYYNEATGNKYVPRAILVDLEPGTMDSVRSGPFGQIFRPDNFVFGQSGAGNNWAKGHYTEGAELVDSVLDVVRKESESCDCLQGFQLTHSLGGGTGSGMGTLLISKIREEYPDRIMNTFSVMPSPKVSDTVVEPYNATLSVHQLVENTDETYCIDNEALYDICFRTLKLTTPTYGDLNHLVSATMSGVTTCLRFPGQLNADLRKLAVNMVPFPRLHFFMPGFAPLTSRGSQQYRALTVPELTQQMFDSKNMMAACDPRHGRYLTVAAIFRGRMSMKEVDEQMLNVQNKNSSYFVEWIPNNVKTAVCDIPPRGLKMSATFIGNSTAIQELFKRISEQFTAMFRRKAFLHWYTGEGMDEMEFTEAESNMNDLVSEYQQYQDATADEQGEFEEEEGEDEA
Chain of Bovine brain tubulin (P81947 whole entry partner): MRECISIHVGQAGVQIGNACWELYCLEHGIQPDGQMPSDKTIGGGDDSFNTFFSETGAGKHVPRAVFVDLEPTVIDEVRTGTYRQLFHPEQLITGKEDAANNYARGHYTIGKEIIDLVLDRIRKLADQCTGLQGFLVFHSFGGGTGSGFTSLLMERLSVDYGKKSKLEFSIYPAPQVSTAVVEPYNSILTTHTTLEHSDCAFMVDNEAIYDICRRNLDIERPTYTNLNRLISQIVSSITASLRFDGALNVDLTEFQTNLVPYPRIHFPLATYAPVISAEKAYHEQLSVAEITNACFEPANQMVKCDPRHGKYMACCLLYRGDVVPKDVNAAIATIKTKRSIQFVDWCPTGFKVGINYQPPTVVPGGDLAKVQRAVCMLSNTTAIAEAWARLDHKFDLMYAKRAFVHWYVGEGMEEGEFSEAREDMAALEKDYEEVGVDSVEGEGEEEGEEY
Chain of PDGFR-β (P09619 33-1106): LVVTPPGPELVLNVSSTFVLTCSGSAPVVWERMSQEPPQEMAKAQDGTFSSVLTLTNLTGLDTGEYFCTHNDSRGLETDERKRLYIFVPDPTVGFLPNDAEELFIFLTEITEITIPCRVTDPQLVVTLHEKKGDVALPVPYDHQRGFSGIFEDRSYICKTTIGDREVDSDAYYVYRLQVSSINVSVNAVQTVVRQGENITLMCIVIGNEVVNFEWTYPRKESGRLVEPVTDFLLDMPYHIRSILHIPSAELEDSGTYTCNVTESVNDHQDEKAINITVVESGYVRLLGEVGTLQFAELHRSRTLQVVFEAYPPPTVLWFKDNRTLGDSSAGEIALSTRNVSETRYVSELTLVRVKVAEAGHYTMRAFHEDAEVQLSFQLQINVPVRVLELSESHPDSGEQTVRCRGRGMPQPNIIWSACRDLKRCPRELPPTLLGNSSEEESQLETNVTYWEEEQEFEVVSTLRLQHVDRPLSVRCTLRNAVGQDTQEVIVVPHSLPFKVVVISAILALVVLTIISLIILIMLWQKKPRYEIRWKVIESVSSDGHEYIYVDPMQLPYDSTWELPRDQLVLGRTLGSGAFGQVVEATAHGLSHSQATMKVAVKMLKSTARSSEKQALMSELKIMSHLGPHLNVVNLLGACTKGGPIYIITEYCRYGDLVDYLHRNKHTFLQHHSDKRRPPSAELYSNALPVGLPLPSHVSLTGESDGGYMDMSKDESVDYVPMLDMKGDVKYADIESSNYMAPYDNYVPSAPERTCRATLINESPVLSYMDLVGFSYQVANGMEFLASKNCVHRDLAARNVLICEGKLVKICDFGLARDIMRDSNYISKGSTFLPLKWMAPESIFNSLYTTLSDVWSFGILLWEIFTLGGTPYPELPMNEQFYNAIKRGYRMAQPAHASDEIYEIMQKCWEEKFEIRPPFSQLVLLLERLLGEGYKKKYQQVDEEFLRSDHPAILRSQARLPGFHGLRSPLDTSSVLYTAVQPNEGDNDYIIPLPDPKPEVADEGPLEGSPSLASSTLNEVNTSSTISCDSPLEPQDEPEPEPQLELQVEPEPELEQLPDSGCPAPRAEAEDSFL

IC50 [4]: 480 ± 70 nM
SMILES: CSc1ccc(N(C)c2nc(C)nc3ccccc23)cc1 [Compound 3, N,2-Dimethyl-N-(4-(methylthio)phenyl)quinazolin-4-amine]

fold loss of potency with PDGFR-β [5]: ~ 5 fold
IC50 [4]: 640 ± 10 nM
SMILES: COc1cccc2cc(N(C)c3nc(C)nc4ccccc34)ccc12 [Compound 4, N-(5-Methoxynaphthalen-2-yl)-N,2-dimethylquinazolin-4-amine]

IC50 [6]: 2.8 ± 0.4 nM
IC50 [7]: 24 ± 0.2 nM
SMILES: CC(=O)O[C@H]1C(=O)[C@@]2(C)[C@H]([C@H](OC(=O)c3ccccc3)[C@]3(O)C[C@H](OC(=O)[C@H](O)[C@@H](NC(=O)c4ccccc4)c4ccccc4)C(C)=C1C3(C)C)[C@]1(OC(C)=O)CO[C@@H]1C[C@@H]2O [Paclitaxel]

The remaining lines, values behind:

SMILES: COc1ccc(N(C)c2nc(C)nc3ccccc23)cc1 [Compound 1, N-(4-Methoxyphenyl)-N,2-dimethylquinazolin-4-amine]
substrate for breast cancer resistance protein (BCRP1) [1]: not a substrate
concentrations in the brain compared to the plasma [2]: 30 fold
substrate for P-glycoprotein (Pgp) [3]: not a substrate

SMILES: COc1ccc(N(C)c2nc(Cl)nc3ccccc23)cc1 [Compound 8, 2-Chloro-N-(4-methoxyphenyl)-N-methylquinazolin-4-amine]
IC50 [4]: 470 ± 20 nM
